Laboratory results reported in US4772633A, “6-pyridyl- and 6-phenyl-3-phenyl-1-hexenes and -1-hexynes, composition containing them, and insecticidal and acaricidal method of using them” (Sumitomo Chemical Company, Limited, priority 1986, dated 1988).
Values after ≈ are worked out from the molar mass of the structure shown. Where two headings read alike, the source gives them in different places.

Assays:
Type in all cases: in vivo
[1] = system: carmine spider mite (Tetranychus cinnabarinus); test: Test Example 8: degree of damage of kidney bean plant by carmine spider mite; design: key: -: No damage is observed.; +: Slight damage is observed.; ++: The same damage as in the untreated plot is observed; conditions: 500 ppm, sprayed 15 ml/pot plus 2 ml to soil; after 8 days; 25° C.
Method: The female adults of carmine spider mite (Tetranychus cinnabarinus) were put at a rate of 10 adults/leaf on the leaves of potted kidney bean (at the primordial leaf stage) which had elapsed 7 days after sowing, and placed in a constant-temperature room kept at 25° C. After 6 days, the 200-fold aqueous dilute solutions (corresponding to 500 ppm), prepared from the emulsifiable concentrates of the following present compounds and control compounds prepared according to Formulation example 2, were each sprayed at a rate of 15 ml/pot on a turn table. At the same time, the soil in the pot was treated with 2 ml of each aqueous solution. After 8 days, the degree of damage of the plant by the mite was examined.
-: No damage is observed.
+: Slight damage is observed.
++: The same damage as in the untreated plot is observed.

[2] = system: common mosquito (Culex pipiens pallens); test: Test Example 1: mortality of larvae and inhibition of emergence of common mosquito; conditions: for Inhibitory ratio of emergence: 3.5 ppm, counted when all mosquitoes of no treatment group had emerged; for mortality at 3.5 ppm: Culex pipiens, 24 h, last instar larvae, after one day
Method: The emulsifiable concentrates of the following present compounds obtained according to Formulation example 2 were each diluted with water so as to obtain respective aqueous solutions containing 3.5 ppm of said compounds, respectively. One hundred ml of thus diluted aqueous solutions were poured into respective polyethylene cups of 180 ml volume, and 20 of the last instar larvae of common mosquito (Culex pipiens pallens) were liberated thereto. After one day, the dead or alive of the larvae were examined. Thereafter, the feed was added to respective cups and the number of emerged mosquitoes of the respective cups was counted when all the mosquitoes of no treatment group had […] to calculate the inhibitory ratios of the emergence. The mortality and the inhibitory ratio of the emergence are shown according to the following three criteria: mortality: A; 90% or more, […] inhibitory: A; 90% or more, ratio of emergence B; less than 90% to 80% C; less than 80%.

[3] = system: resistant strain of green rice leafhopper (Nephotetix cincticecs); test: Test Example 3: LC50 against adults of a resistant strain of green rice leafhopper (rice seedling dipping); conditions: Nephotettix cincticeps, 24 h, read-out: LC50 value
Method: The emulsifiable concentrates of the following present compounds and control compounds obtained according to Formulation example 2 were each diluted with water to a prescribed concentration, and rice seedlings (about 12 cm in length) were dipped for 1 minute in the resulting aqueous dilute solutions. After air-drying, the seedlings were placed in test tube, and 10 adults of a resistant strain of green rice leafhopper (Nephotetix cincticecs) were liberated in the tube. After one day, the dead and alive of the adults were examined to obtain LC50 (50% lethal concentration)(two replications).

[4] = system: tobacco cutworms (Spodoptera litura); test: Test Example 2: mortality of tobacco cutworm 4th instar larvae on treated artificial feed; conditions: 144 h, 2 ml in 13 g artificial feed, six days after, two replications
Source text: Two ml of thus diluted solutions were impregnated into the artificial feeds (13 g) for tobacco cutworms (Spodoptera litura) and thus prepared feeds were placed in polyethylene cups of 11 cm in diameter, respectively. Ten of the 4th instar larvae were liberated thereon.
Six days after, the dead and alive of the larvae were examined to calculate the mortality (two replications).

[5] = system: young Japanese carp (Cyprinida carpio); test: Test Example 9: fish toxicity test; conditions: forty-eight hours, 25°±1° C., Probit method, 2880 min
Method: Twenty liters of each of the aqueous solutions containing the prescribed concentrations of the present compounds and comparative control one, and 10 young carp were liberated thereto. Forty-eight hours after, the dead and alive carp were examined to obtain LC50 value, (50% lethal concentration) according to Probit method. All the tests were carried out in thermostatic aquaria whose temperatures were kept at 25°±1° C.
young Japanese carp (Cyprinida carpio)
Average body length ±S.D.: 2.94±0.19 cm.
Average body weight ±S.D.: 0.65±0.13 g.

[6] = system: brown rice planthoppers (Nilaparavata lugens); test: Test Example 7: mortality and residual effect on brown rice planthoppers on sprayed potted rice plants; conditions: Oryza sativa, 24 h
Method: The emulsifiable concentrates of the following compounds and control compounds obtained according to Formulation example 2 were each diluted with water one thousand times (corresponding to 100 ppm) and each of thus prepared solutions was sprayed at the rate of 20 ml/2 pots to the rice plant seedlings planted in Wagner pots having a surface area of one ten thousandth are. After air-drying, the threated plants were covered with the iron wire cages, and about 15 adults of brown rice planthoppers (Nilaparavata lugens) were liberated thereto. Further, about 15 adults thereof were also liberated thereto 4 days after the application to examine the residual effects. Twenty four hours after each liberation, the dead and alive adults were examined to calculate the mortality.

[7] = system: rice stem borer (Chilo suppressalis); test: Test Example 5: LC50 against rice stem borer larvae (artificial feed); conditions: larvae 10 days old, two replications
Source text: Ten of the larvae of the 10 days old were liberated thereon.

[8] = system: brown rice planthopper (Nilaparvata lugens); test: Test Example 4: LC50 against adults of brown rice planthopper (rice seedling dipping); conditions: 24 h, rice seedlings dipped, 10 adults, after one day, two replications
Source text: After air-drying, the seedlings were placed in a test tube, and 10 adults of brown rice planthopper (Nilaparvata lugens) were liberated in the tube.

[9] = system: houseflies (Musca domestica) of WHO strains; test: Test Example 6: LC50 against adult female houseflies of WHO strains (sucrose bait); conditions: filter paper with sucrose bait, adult females, after 48 hours, two replications
Source text: Thirty milligrams of sucrose were uniformly placed on the filter paper as bait. Thereafter, 10 adult female houseflies (Musca domestica) of WHO strains were liberated in the cup, which was then covered witha lid.

[10] = read-out: Mortality (%) liberated 4 days after application
[11] = read-out: Mortality (%) liberated just after air-drying
[12] = rice seedlings dipped 1 minute, 10 adults, after one day, two replications

Row | Structure (SMILES) | Degree of damage [1] | Inhibitory ratio of emergence [2] | mortality at 3.5 ppm [2] [%] | mortality at 100 ppm [6, 10] [%] | mortality at 100 ppm [6, 11] [%] | further results
1 | C#CC(C)(CCCc1cccc(Oc2ccccc2)c1)c1ccc(OC(F)F)cc1 (stereo not drawn) [(17), 3-(4-difluoromethoxyphenyl)-3-methyl-6-(3-phenoxyphenyl)-1-hexyne] | - | A (90% or more) | > 90 |  |  | 
2 | C#CC(C)(CCCc1ccc(F)c(Oc2ccccc2)c1)c1ccc(Cl)cc1 (stereo not drawn) [(10), 3-(4-Chlorophenyl)-3-methyl-6-(3-phenoxy-4-fluorophenyl)-1-hexyne] | - | A (90% or more) | > 90 |  |  | 
3 | C#CC(C)(CCCc1cccc(Oc2ccccc2)c1)c1ccc(C(F)(F)F)cc1 (stereo not drawn) [(13), 3-(4-Trifluoromethylphenyl)-3-methyl-6-(3-phenoxyphenyl)-1-hexyne] | - | A (90% or more) | > 90 |  |  | LC50 [3]: 10 µg/mL (≈ 24.5 µM); mortality at 150 ppm [4]: 100%
4 | C#CC(C)(CCCc1ccc(F)c(Oc2ccccc2)n1)c1ccc(OCC)cc1 (stereo not drawn) [(20)] | - ~ + | A (90% or more) | > 90 |  |  | 
5 | C#CC(C)(CCCc1ccc(F)c(Oc2ccccc2)c1)c1ccc(OCC)cc1 (stereo not drawn) [(4), 3-(4-Ethoxyphenyl)-3-methyl-6-(3-phenoxy-4-fluorophenyl)-1-hexyne] | - | A (90% or more) | > 90 | 100 | 100 | LC50 value (fish toxicity) [5]: > 10 ppm
6 | C#CC(C)(CCCc1cccc(Oc2ccccc2)c1)c1ccc(Cl)cc1 (stereo not drawn) [(25), 3-(4-Chlorophenyl)-3-methyl-6-(3-phenoxyphenyl)-1-hexyne] | - | A (90% or more) | > 90 |  |  | 
7 | C#CC(C)(CCCc1cccc(Oc2ccccc2)c1)c1ccc(OCC=C)cc1 (stereo not drawn) [(7), 3-(4-allyloxyphenyl)-3-methyl-6-(3-phenoxyphenyl)-1-hexyne] | - | A (90% or more) | 10 to 90 | 93 | 100 | 
8 | CCOC(=O)CC(SP(=S)(OC)OC)C(=O)OCC (stereo not drawn) [(D), Malathion, reference compound] |  |  |  |  |  | LC50 [3, 12]: ~500 µg/mL (≈ 1510 µM)
9 | C#CC(C)(CCCc1ccc(F)c(Oc2ccccc2)c1)c1ccc(C(F)(F)F)cc1 (stereo not drawn) [(37), 3-(4-Trifluoromethylphenyl)-3-methyl-6-(3-phenoxy-4-fluorophenyl)-1-hexyne] |  | A (90% or more) | > 90 |  |  | LC50 [3, 12]: 14 µg/mL (≈ 32.8 µM)
10 | CCOc1ccc(C(C)(C)COCc2cccc(Oc3ccccc3)c2)cc1 [(B), reference compound] | + ~ ++ |  |  | 65 | 100 | 
11 | C#CC(C)(CCCc1cccc(Oc2ccccc2)c1)c1ccc(OCC)cc1 (stereo not drawn) [(3), 3-(4-ethoxyphenyl)-3-methyl-6-(3-phenoxyphenyl)-1-hexyne] | - | A (90% or more) | > 90 | 95 | 100 | LC50 value (fish toxicity) [5]: > 10 ppm
12 | C#CC(C)(CCCc1ccc(F)c(Oc2ccccc2)c1)c1ccc(OC(F)F)cc1 (stereo not drawn) [(6), 3-(4-Difluoromethoxyphenyl)-3-methyl-6-(3-phenoxy-4-fluorophenyl)-1-hexyne] | - | A (90% or more) | > 90 |  |  | 
13 | C#CC(C)(CCCc1ccc(F)c(Oc2ccccc2)c1)c1ccc(OCC)c(Cl)c1 (stereo not drawn) [(11), 3-(3-Chloro-4-ethoxyphenyl)-3-methyl-6-(3-phenoxy-4-fluorophenyl)-1-hexyne] | - | A (90% or more) | > 90 |  |  | 
14 | CCC(C)c1ccccc1OC(=O)NC (stereo not drawn) [(C), BPMC, reference compound] |  |  |  | 6 | 100 | 
15 | C=CC(C)(CCCc1cccc(Oc2ccccc2)c1)c1ccc(OCC)cc1 (stereo not drawn) [(1), 3-(4-ethoxyphenyl)-3-methyl-6-(3-phenoxyphenyl)-1-hexene] | - ~ + | A (90% or more) | > 90 | 100 | 100 | 
16 | CCC(C)(CCCc1cccc(Oc2ccccc2)c1)c1ccc(Cl)cc1 (stereo not drawn) [(A), reference compound] | + ~ ++ |  |  | 44 | 71 | LC50 [7]: 230 µg/mL (≈ 607 µM); LC50 [8]: > 500 µg/mL; LC50 [9]: ~500 µg/mL (≈ 1320 µM); LC50 [3]: ~500 µg/mL (≈ 1320 µM)
17 | C=CC(C)(CCCc1ccc(F)c(Oc2ccccc2)c1)c1ccc(OCC)cc1 (stereo not drawn) [(2), 3-(4-Ethoxyphenyl)-3-methyl-6-(3-phenoxy-4-fluorophenyl)-1-hexene] | - | A (90% or more) | > 90 | 100 | 100 | 
18 | C#CC(C)(CCCc1ccc(F)c(Oc2ccccc2)c1)c1ccc(CC)cc1 (stereo not drawn) [(39), 3-(4-Ethylphenyl)-3-methyl-6-(3-phenoxy-4-fluorophenyl)-1-hexyne] | - ~ + | A (90% or more) | > 90 |  |  | 
19 | C#CC(C)(CCCc1cccc(Oc2ccccc2)c1)c1ccc(OCC)c(Cl)c1 (stereo not drawn) [(16), 3-(3-Chloro-4-ethoxyphenyl)-3-methyl-6-(3-phenoxyphenyl)-1-hexyne] | - | A (90% or more) | 10 to 90 |  |  | 
20 | C#CC(C)(CCCc1cccc(Oc2ccccc2)n1)c1ccc(OCC)cc1 (stereo not drawn) [(18), 3-(4-ethoxyphenyl)-3-methyl-6-(6-phenoxypyridin-2-yl)-1-hexyne] | - ~ + | A (90% or more) | > 90 |  |  | 
